According to patent US12398111B2, “Triazine compounds and pharmaceutical use thereof” (Japan Tobacco Inc., priority 2014, dated 2025):
pIC50: −log10 of the molar value.

What was measured:
[1] = test system: prostaglandins in guinea pig secondary aqueous humor; assay: Effect on prostaglandin composition in guinea pig aqueous humor (instillation of 0.003% ophthalmic solution, LC/MS/MS); assay type: in vivo, Hartley male guinea pig; details: 24 hr after instillation of 0.003% ophthalmic solution
Protocol: A test article was dissolved in saline containing 0.5% polysorbate80 (Fluka) and 0.003% ophthalmic solution (pH 7.0-8.0) was prepared. The test article was administered to Hartley male guinea pig by instillation of 20 μL thereof to one eye by using a micropipette. After instillation, the lacrimal part was lightly fixed by gently pressing the lower eyelid for about 15 seconds. The opposite eye was treated in the same manner. To the vehicle group was administered the medium (0.5% polysorbate-containing saline) by a method similar to that for the test article. After 23 hr from the instillation, Mydrin P (registered trade mark) 0.5% ophthalmic solution (Santen Pharmaceutical Co., Ltd., general name: tropicamide/phenylephrine hydrochloride) was dropwisely added by one drop to the both eyes of a guinea pig to cause mydriasis. The guinea pig was anesthetized with Escain (registered trade mark) inhalation anesthetics (Pfizer Inc., general name: isoflurane), the cornea of the both eyes was tapped with a 30G injection needle, and the leaked aqueous humor (primary aqueous humor) was collected. One hour later (24 hr after instillation), the guinea pig was anesthetized again with isoflurane, and the secondary aqueous humor was collected in the same manner. The concentration of prostaglandins in the secondary aqueous humor obtained from each group (4 guinea pigs, 8 eyes) was measured by the LC/MS/MS system (Ultra high performance liquid chromatography: Nexera (registered trademark) manufactured by Shimadzu Corporation, mass spectrometer: […]), and the concentration ratio of each prostaglandin concentration relative to the total of all prostaglandin concentrations was calculated.

human mPGES-1 = biological target: T1, human mPGES-1 (Homo sapiens, UniProt O14684); assay: Evaluation of human mPGES-1 enzyme inhibitory activity (PGE2 measured by HTRF, microsome fraction of CHO-S cells expressing human mPGES-1); assay type: biochemical; details: IC50 value; microsome fraction of CHO-S cells expressing human mPGES-1, PGE2 by HTRF
T1 construct: made in house; host or cells: FreeStyle CHO-S cells (Chinese hamster ovary), transient transfection with pcDNA3.1(+)/human mPGES-1; microsome fraction used
T1 sequence (O14684 1-152): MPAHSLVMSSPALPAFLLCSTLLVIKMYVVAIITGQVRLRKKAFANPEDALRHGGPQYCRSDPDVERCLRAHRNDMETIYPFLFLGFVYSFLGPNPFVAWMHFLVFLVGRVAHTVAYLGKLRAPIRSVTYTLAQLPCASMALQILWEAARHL
Outline: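 Enzyme source: microsomes from CHO-S cells transfected with human mPGES-1 and cultured 48 hr, diluted to 5 μg/mL protein in reduced GSH (12.5 mmol/L KPB solution). Test articles were in 0.1 mol/L potassium phosphate pH 7.4, final DMSO 2% (v/v). PGE2 formed was quantified by HTRF.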

| Structure (SMILES) | pIC50 (human mPGES-1) | 6-keto-PGF1α (%) [1] | PGD2 (%) [1] | PGE2 (%) [1] | PGF2α (%) [1] | TXB2 (%) [1] |
| --- | --- | --- | --- | --- | --- | --- |
| CC(C)Cc1ccc(-c2nc(O)nc(-c3cc(CNC(=O)C(C)(C)C)ccc3Cl)n2)cc1 [Example 1-51, N-{4-chloro-3-[4-(4-isobutylphenyl)-6-hydroxy-1,3,5-triazin-2-yl]benzyl}-2,2-dimethylpropionamide] | 9.00 | 21.7% | 13.2% | 50.7% | 14% | 0.4% |
| Cc1ccc(-c2nc(O)nc(-c3cc(CNC(=O)C(C)(C)C(F)(F)F)ccc3Cl)n2)cc1F [Example 1-81, N-{4-chloro-3-[4-(3-fluoro-4-methylphenyl)-6-hydroxy-1,3,5-triazin-2-yl]benzyl}-3,3,3-trifluoro-2,2-dimethylpropionamide] | 9.22 | 15.7% | 13.2% | 60% | 9.8% | 1.3% |
| CC(C)c1ccc(-c2nc(O)nc(-c3cc(CNC(=O)C(C)(C)C(F)(F)F)ccc3Cl)n2)cc1 [Example 1-98, N-{4-chloro-3-[4-hydroxy-6-(4-isopropylphenyl)-1,3,5-triazin-2-yl]benzyl}-3,3,3-trifluoro-2,2-dimethylpropionamide] | 9.05 | 31.2% | 16.3% | 38% | 14.2% | 0.3% |
| CC(C)COc1ccc(-c2nc(O)nc(-c3cc(CNC(=O)C(C)(C)C(F)(F)F)ccc3Cl)n2)cc1 [Example 1-109, N-{4-chloro-3-[4-hydroxy-6-(4-isobutoxyphenyl)-1,3,5-triazin-2-yl]benzyl}-3,3,3-trifluoro-2,2-dimethylpropionamide] | 8.60 | 37.5% | 18.9% | 29.5% | 14.1% | 0.1% |
| CCCOc1ccc(-c2nc(O)nc(-c3cc(CNC(=O)C(C)(C)C(F)(F)F)ccc3Cl)n2)cc1 [Example 1-122, N-{4-chloro-3-[4-hydroxy-6-(4-propoxyphenyl)-1,3,5-triazin-2-yl]benzyl}-3,3,3-trifluoro-2,2-dimethylpropionamide] | 8.89 | 27.7% | 23% | 37.3% | 11.7% | 0.2% |
| CC1(COc2ccc(-c3nc(O)nc(-c4cc(CNC(=O)C(C)(C)C(F)(F)F)ccc4Cl)n3)cc2)CC1 [Example 1-128, N-(4-chloro-3-{4-hydroxy-6-[4-(1-methylcyclopropylmethoxy)phenyl]-1,3,5-triazin-2-yl}benzyl)-3,3,3-trifluoro-2,2-dimethylpropionamide] | 8.89 | 29.7% | 19.3% | 36.2% | 13.9% | 0.8% |
| Cc1ccc(-c2nc(O)nc(-c3cc(CNC(=O)C(C)(C)C(F)(F)F)ccc3Cl)n2)cc1Cl [Example 1-129, N-{4-chloro-3-[4-(3-chloro-4-methylphenyl)-6-hydroxy-1,3,5-triazin-2-yl]benzyl}-3,3,3-trifluoro-2,2-dimethylpropionamide] | 9.22 | 18.1% | 9.2% | 62.5% | 10.2% | 0% |
| CC(C)c1cc(-c2nc(O)nc(-c3cc(CNC(=O)C(C)(C)C(F)(F)F)ccc3Cl)n2)ccc1C(F)(F)F [Example 1-130, N-{4-chloro-3-[4-hydroxy-6-(3-isopropyl-4-trifluoromethylphenyl)-1,3,5-triazin-2-yl]benzyl}-3,3,3-trifluoro-2,2-dimethylpropionamide] | 8.05 | 11.2% | 6.2% | 73.6% | 8% | 1% |
| CCCCOc1ccc(-c2nc(O)nc(-c3cc(CNC(=O)C(C)(C)C(F)(F)F)ccc3Cl)n2)cc1 [Example 1-131, N-{3-[4-(4-butoxyphenyl)-6-hydroxy-1,3,5-triazin-2-yl]-4-chlorobenzyl}-3,3,3-trifluoro-2,2-dimethylpropionamide] | 9.05 | 27.9% | 18.8% | 42.9% | 9.8% | 0.6% |
| Cc1cccc(COc2cccc(C(F)(F)F)c2-c2nc(O)nc(-c3ccc(C#Cc4ccc(Cl)cc4)cc3)n2)n1 [Example 2-124] | 7.92 | – | – | – | – | – |
| COc1cccc(C#Cc2ccc(-c3nc(O)nc(-c4c(OCc5cccc(C)n5)cccc4C(F)(F)F)n3)cc2)c1 [Example 2-125] | 8.37 | – | – | – | – | – |
| COc1ccc(C#Cc2ccc(-c3nc(O)nc(-c4c(OCc5cccc(C)n5)cccc4C(F)(F)F)n3)cc2)cc1 [Example 2-126] | 8.34 | – | – | – | – | – |
| Cc1ccc(C#Cc2ccc(-c3nc(O)nc(-c4c(OCc5cccc(C)n5)cccc4C(F)(F)F)n3)cc2)cc1 [Example 2-127] | 8.21 | – | – | – | – | – |
| CCc1ccc(C#Cc2ccc(-c3nc(O)nc(-c4c(OCc5cccc(C)n5)cccc4C(F)(F)F)n3)cc2)cc1 [Example 2-128] | 7.89 | – | – | – | – | – |
| Cc1cccc(COc2cccc(C(F)(F)F)c2-c2nc(O)nc(-c3ccc(C#Cc4ccccc4OC(F)(F)F)cc3)n2)n1 [Example 2-129] | 7.49 | – | – | – | – | – |
| Cc1cccc(COc2cccc(C(F)(F)F)c2-c2nc(O)nc(-c3ccc(C#Cc4ccc(OC(F)(F)F)cc4)cc3)n2)n1 [Example 2-130] | 7.46 | – | – | – | – | – |

Second part, led by results:

| pIC50 (human mPGES-1) | Structure (SMILES) | 6-keto-PGF1α (%) [1] | PGD2 (%) [1] | PGE2 (%) [1] | PGF2α (%) [1] | TXB2 (%) [1] |
| --- | --- | --- | --- | --- | --- | --- |
| 6.32 | Cc1cc(C)c(-c2nc(O)nc(-c3ccc(C(F)(F)F)cc3)n2)c(C)c1 [Example 3-1] | – | – | – | – | – |
| 6.83 | COc1c(CO)ccc(Cl)c1-c1nc(O)nc(-c2ccc(C(F)(F)F)cc2)n1 [Example 3-2] | – | – | – | – | – |
| 6.85 | COc1c(C)ccc(Cl)c1-c1nc(O)nc(-c2ccc(C(F)(F)F)cc2)n1 [Example 3-3] | – | – | – | – | – |
| 6.69 | CCOc1c(C)ccc(Cl)c1-c1nc(O)nc(-c2ccc(C(F)(F)F)cc2)n1 [Example 3-4] | – | – | – | – | – |
| 6.47 | COc1c(CNC(C)=O)ccc(Cl)c1-c1nc(O)nc(-c2ccc(C(F)(F)F)cc2)n1 [Example 3-5] | – | – | – | – | – |
| 7.25 | Cc1c(CO)ccc(Cl)c1-c1nc(O)nc(-c2ccc(C(F)(F)F)cc2)n1 [Example 3-6] | – | – | – | – | – |
| 7.72 | CC(=O)NCc1ccc(Cl)c(-c2nc(O)nc(-c3ccc(C(F)(F)F)cc3)n2)c1C [Example 3-7] | – | – | – | – | – |
| 9.00 | Cc1c(CNC(=O)C(C)(C)C)ccc(Cl)c1-c1nc(O)nc(-c2ccc(C(F)(F)F)cc2)n1 [Example 3-8] | – | – | – | – | – |
| 6.11 | Cc1ccc(Cl)c(-c2nc(O)nc(-c3ccc(C(F)(F)F)cc3)n2)c1OCCO [Example 3-9] | – | – | – | – | – |
| 7.80 | Cc1c(CNS(=O)(=O)C(C)(C)C)ccc(Cl)c1-c1nc(O)nc(-c2ccc(C(F)(F)F)cc2)n1 [Example 3-10] | – | – | – | – | – |
| 7.03 | COc1ccc(F)c(Cl)c1-c1nc(O)nc(-c2ccc(C(F)(F)F)cc2)n1 [Example 3-11] | – | – | – | – | – |
| 7.55 | COc1ccc(F)c(Cl)c1-c1nc(O)nc(-c2ccc(OCc3ccccc3)cc2)n1 [Example 3-12] | – | – | – | – | – |
| 7.47 | Cc1ccc(Cl)c(-c2nc(O)nc(-c3ccc(C(F)(F)F)cc3)n2)c1OCc1ccccn1 [Example 3-13] | – | – | – | – | – |
| 8.70 | Cc1c(CNC(=O)C(C)(C)C(F)(F)F)ccc(Cl)c1-c1nc(O)nc(-c2ccc(CC(C)C)cc2)n1 [Example 3-14] | – | – | – | – | – |
| 8.29 | CCOC(=O)NCc1ccc(Cl)c(-c2nc(O)nc(-c3ccc(CC(C)C)cc3)n2)c1C [Example 3-15] | – | – | – | – | – |
| 8.68 | CCCc1cccc(-c2nc(O)nc(-c3cc(CNC(=O)C(C)(C)C(F)(F)F)c(C)cc3Cl)n2)c1 [Example 3-16] | – | – | – | – | – |
| 9.10 | Cc1cc(Cl)c(-c2nc(O)nc(-c3ccc(OCC4CC4)cc3)n2)cc1CNC(=O)C(C)(C)C(F)(F)F [Example 3-17] | – | – | – | – | – |
| 8.92 | Cc1c(CNC(=O)C(C)(C)C(F)(F)F)ccc(Cl)c1-c1nc(O)nc(-c2ccc(OCC(C)C)cc2)n1 [Example 3-18] | – | – | – | – | – |
| 4.61 | Cc1cc(Cl)c(-c2nc(O)nc(-c3ccc(OCC4CC4)cc3)n2)cc1C(=O)O [Example 3-19] | – | – | – | – | – |
| 5.96 | Cc1cc(Cl)c(-c2nc(O)nc(-c3ccc(OCC4CC4)cc3)n2)cc1C(N)=O [Example 3-20] | – | – | – | – | – |
| 6.21 | CNC(=O)c1cc(-c2nc(O)nc(-c3ccc(OCC4CC4)cc3)n2)c(Cl)cc1C [Example 3-21] | – | – | – | – | – |
| 5.16 | Cc1cc(Cl)c(-c2nc(O)nc(-c3ccc(OCC4CC4)cc3)n2)cc1C(=O)N(C)C [Example 3-22] | – | – | – | – | – |
| 7.39 | CCCCNC(=O)c1cc(-c2nc(O)nc(-c3ccc(OCC4CC4)cc3)n2)c(Cl)cc1C [Example 3-23] | – | – | – | – | – |
